Data taken from patent US8653050B2, “Phenyl bicyclic methyl amine derivatives as sphingosine-1 phosphate receptors modulators” (Allergan, Inc., priority 2011, dated 2014).

Tests used:
[1] = biological target: T1, human S1P1 receptor (Homo sapiens, UniProt P21453); test: GTP γ35S binding assay for S1P1 activity; assay type: biochemical; settings: membranes of cells stably expressing S1P1 receptor
T1 construct: expressed in transfected cells; membranes used
Description: Compounds were synthesized and tested for S1P1 activity using the GTP γ^35S binding assay. These compounds may be assessed for their ability to activate or block activation of the human S1P1 receptor in cells stably expressing the S1P1 receptor.
GTP γ^35S binding was measured in the medium containing (mM) HEPES 25, pH 7.4, MgCl2 10, NaCl 100, dithitothreitol 0.5, digitonin 0.003%, 0.2 nM GTP γ^35S, and 5 μg membrane protein in a volume of 150 μl. Test compounds were included in the concentration range from 0.08 to 5,000 nM unless indicated otherwise. Membranes were incubated with 100 μM 5′-adenylylimmidodiphosphate for 30 min, and subsequently with 10 μM GDP for 10 min on ice. Drug solutions and membrane were mixed, and then reactions were initiated by adding GTP γ^35S and continued for 30 min at 25° C. Reaction mixtures were filtered over Whatman GF/B filters under vacuum, and washed three times with 3 mL of ice-cold buffer (HEPES 25, pH7.4, MgCl2 10 and NaCl 100). Filters were dried and mixed with scintillant, and counted for ^35S activity using a β-counter. Agonist-induced GTP γ^35S binding was obtained by subtracting that in the absence of agonist. Binding data were analyzed using a non-linear regression method. In case of antagonist assay, the reaction mixture contained 10 nM […] in the presence of test antagonist at concentrations ranging from 0.08 to 5000 nM.

[2] = tested on: female C57BL6 mice; test: Lymphopenia assay in mice (in vivo blood lymphocyte depletion); settings: subcutaneous, 10 mg/Kg or 2 mg/Kg, 24 hours after dosing, FIG. 1 / FIG. 2
Description: Test drugs are prepared in a solution containing 3% (w/v) 2-hydroxy propyl R-cyclodextrin (HPBCD) and 1% DMSO to a final concentration of 1 mg/ml, and subcutaneously injected to female C57BL6 mice (CHARLES RIVERS) weighing 20-25 g at the dose of 10 mg/Kg. Blood samples are obtained by puncturing the submandibular skin with a Goldenrod animal lancet at 5, 24, 48, 72, and 96 hrs post drug application. Blood is collected into microvettes (SARSTEDT) containing EDTA tripotassium salt. Lymphocytes in blood samples are counted using a HEMAVET Multispecies Hematology System, HEMAVET HV950FS (Drew Scientific Inc.). (Hale, J. et al Bioorg. & Med. Chem. Lett. 14 (2004) 3351).
A lymphopenia assay in mice, as previously described, was employed to measure the in vivo blood lymphocyte depletion after dosing Compounds 9, 10, 11 and 14, (FIG. 1) and Compounds 15, 17, 18 and 20, (FIG. 2). These S1P agonists (or modulators) are useful for S1P-related diseases, and exemplified by the lymphopenia in vivo response. In general, test compounds were prepared in a solution containing 3% (w/v) 2-hydroxy propyl β-cyclodextrin (HPBCD) and 1% DMSO to a final concentration of 1 mg/ml, and subcutaneously injected to female C57BL6 mice (CHARLES RIVERS) weighing 20-25 g at the dose of 10 mg/Kg or 2 mg/Kg. Blood samples were obtained by puncturing the submandibular skin with a Goldenrod animal lancet at 24, 48, 72 and 96 hrs post drug application. Blood was collected into microvettes (SARSTEDT) containing EDTA tripotassium salt. Lymphocytes in blood samples were counted using a HEMAVET Multispecies Hematology System, HEMAVET HV950FS (Drew Scientific Inc.).

T1 sequence (P21453 whole entry): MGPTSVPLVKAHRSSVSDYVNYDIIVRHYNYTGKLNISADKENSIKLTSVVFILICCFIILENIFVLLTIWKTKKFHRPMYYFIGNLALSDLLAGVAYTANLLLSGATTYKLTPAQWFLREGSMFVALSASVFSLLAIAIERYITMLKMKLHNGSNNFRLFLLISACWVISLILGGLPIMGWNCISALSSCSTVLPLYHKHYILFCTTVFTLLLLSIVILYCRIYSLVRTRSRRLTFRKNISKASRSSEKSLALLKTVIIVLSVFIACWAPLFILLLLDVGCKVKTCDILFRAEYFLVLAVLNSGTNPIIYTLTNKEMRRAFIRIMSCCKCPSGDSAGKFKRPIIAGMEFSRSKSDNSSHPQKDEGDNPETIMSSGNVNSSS

## O=P(O)(O)CCCNCc1ccc(-c2ccc(CCCc3ccccc3)cc2)c2cccnc12 [Compound 6, {3-[({5-[4-(3-phenylpropyl)phenyl]quinolin-8-yl}methyl)amino]propyl}phosphonic acid]
[1]
  EC50: 8.3 nM

## CCCCCCCCc1ccc(-c2ccc(CNCCCP(=O)(O)O)c3ncccc23)cc1 [Compound 12, [3-({[5-(4-octylphenyl)quinolin-8-yl]methyl}amino)propyl]phosphonic acid]
[1]
  EC50: 11.2 nM

## CCCCCCc1ccc(-c2ccc(CNCCOP(=O)(O)O)c3ncccc23)cc1 [Compound 5, 2-({[5-(4-hexylphenyl)quinolin-8-yl]methyl}amino)ethyl dihydrogen phosphate]
[1]
  EC50: 31.1 nM

## CCCCC(CC)CCc1ccc(-c2ccc(CNCCO)c3ncccc23)cc1F (centres unmarked) [Compound 22, 2-[({5-[4-(3-ethylheptyl)-3-fluorophenyl]quinolin-8-yl}methyl)amino]ethanol]
[1]
  EC50: 137 nM

## Cc1cccc(CCCc2ccc(-c3ccc(CNCCCP(=O)(O)O)c4ncccc34)cc2F)c1 [Compound 17, (3-{[(5-{3-fluoro-4-[3-(3-methylphenyl)propyl]phenyl}quinolin-8-yl)methyl]amino}propyl)phosphonic acid]
[1]
  EC50: 0.3 nM
[2]
  lymphocyte count after 24 hours: lowered lymphocyte count

## O=P(O)(O)CCCNCc1ccc(-c2ccc(CCCc3ccccc3)c(F)c2)c2cccnc12 [Compound 2, {3-[({5-[3-fluoro-4-(3-phenylpropyl)phenyl]quinolin-8-yl}methyl)amino]propyl}phosphonic acid]
[1]
  EC50: 5.95 nM

## Cc1ccccc1CCCc1ccc(-c2ccc(CNCCCP(=O)(O)O)c3ncccc23)cc1 [Compound 8, (3-{[(5-{4-[3-(2-methylphenyl)propyl]phenyl}quinolin-8-yl)methyl]amino}propyl)phosphonic acid]
[1]
  EC50: 3.8 nM

## Cc1ccc(CCCc2ccc(-c3ccc(CNCCCP(=O)(O)O)c4ncccc34)cc2F)cc1 [Compound 18, (3-{[(5-{3-fluoro-4-[3-(4-methylphenyl)propyl]phenyl}quinolin-8-yl)methyl]amino}propyl)phosphonic acid]
[1]
  EC50: 1 nM
[2]
  lymphocyte count after 24 hours: lowered lymphocyte count

## CCCCCCc1ccc(-c2ccc(CNCCCP(=O)(O)O)c3ncccc23)cc1F [Compound 13, [3-({[5-(3-fluoro-4-hexylphenyl)quinolin-8-yl]methyl}amino)propyl]phosphonic acid]
[1]
  EC50: 1.3 nM

## CCCCC(CC)CCc1ccc(-c2ccc(CNCCCP(=O)(O)O)c3ncccc23)cc1F (centres unmarked) [Compound 19, {3-[({5-[4-(3-ethylheptyl)-3-fluorophenyl]quinolin-8-yl}methyl)amino]propyl}phosphonic acid]
[1]
  EC50: 2.5 nM

## CCCCC(CC)CCc1ccc(-c2ccc(CNCCCP(=O)(O)O)c3ncccc23)cc1 (centres unmarked) [Compound 11, {3-[({5-[4-(3-ethylheptyl)phenyl]quinolin-8-yl}methyl)amino]propyl}phosphonic acid]
[1]
  EC50: 6.97 nM
[2]
  lymphocyte count after 24 hours: lowered lymphocyte count

## CCCCCCc1ccc(-c2ccc(CNCCCP(=O)(O)O)c3ncccc23)cc1 [Compound 4, [3-({[5-(4-hexylphenyl)quinolin-8-yl]methyl}amino)propyl]phosphonic acid]
[1]
  EC50: 0.6 nM

## O=P(O)(O)CCCNCc1ccc(-c2ccc(CCC3CCCCC3)cc2)c2cccnc12 [Compound 14, {3-[({5-[4-(2-cyclohexylethyl)phenyl]quinolin-8-yl}methyl)amino]propyl}phosphonic acid]
[1]
  EC50: 1.5 nM
[2]
  lymphocyte count after 24 hours: lowered lymphocyte count

## CCCCC(CC)CCc1ccc(-c2ccc(CNCCOP(=O)(O)O)c3ncccc23)cc1F (centres unmarked) [Compound 23, 2-[({5-[4-(3-ethylheptyl)-3-fluorophenyl]quinolin-8-yl}methyl)amino]ethyl dihydrogen phosphate]
[1]
  EC50: 2.63 nM

## CCCCCCCc1ccc(-c2ccc(CNCCCP(=O)(O)O)c3ncccc23)cc1F [Compound 10, [3-({[5-(3-fluoro-4-heptylphenyl)quinolin-8-yl]methyl}amino)propyl]phosphonic acid]
[1]
  EC50: 223 nM
[2]
  lymphocyte count after 24 hours: lowered lymphocyte count

## CCCCCCc1ccc(-c2ccc(CNCCO)c3ncccc23)cc1 [Compound 15, 2-({[5-(4-hexylphenyl)quinolin-8-yl]methyl}amino)ethanol]
[1]
  EC50: 192 nM
[2]
  lymphocyte count after 24 hours: lowered lymphocyte count

## CCCCCCCc1ccc(-c2ccc(CNCCCP(=O)(O)O)c3ncccc23)c(F)c1 [Compound 9, [3-({[5-(2-fluoro-4-heptylphenyl)quinolin-8-yl]methyl}amino)propyl]phosphonic acid]
[1]
  EC50: 13.6 nM
[2]
  lymphocyte count after 24 hours: lowered lymphocyte count

## CCCCCCc1ccc(-c2ccc(CNCCC(=O)O)c3ncccc23)cc1 [Compound 7, 3-({[5-(4-hexylphenyl)quinolin-8-yl]methyl}amino)propanoic acid]
[1]
  EC50: 872 nM

## CCCCCCc1ccc(-c2ccc(CNCCCP(=O)(O)O)c3ccccc23)cc1 [Compound 3, [3-({[4-(4-hexylphenyl)-1-naphthyl]methyl}amino)propyl]phosphonic acid]
[1]
  EC50: 54.2 nM

## Cc1ccccc1CCCc1ccc(-c2ccc(CNCCCP(=O)(O)O)c3ncccc23)cc1F [Compound 16, (3-{[(5-{3-fluoro-4-[3-(2-methylphenyl)propyl]phenyl}quinolin-8-yl)methyl]amino}propyl)phosphonic acid]
[1]
  EC50: 1 nM

## O=P(O)(O)CCCNCc1ccc(-c2ccc(CCC3CCCCC3)c(F)c2)c2cccnc12 [Compound 20, {3-[({5-[4-(2-cyclohexylethyl)-3-fluorophenyl]quinolin-8-yl}methyl)amino]propyl}phosphonic acid]
[1]
  EC50: 1.68 nM
[2]
  lymphocyte count after 24 hours: lowered lymphocyte count
